Measured values published in patent US20150307520A1, “NOVEL HETEROARYL AND HETEROCYCLE COMPOUNDS, COMPOSITIONS AND METHODS THEREOF” (HUTCHISON MEDIPHARMA LIMITED, priority 2012, published 2015).

What was measured:
Type in all cases: biochemical
p110δ/p85α = p110δ/p85α (Homo sapiens, UniProt O00329); assay: Transcreener KINASE Assay, kinase inhibition of p110δ/p85α; conditions: for PI3Kδ IH % @ 1 uM: 1 uM test compound; for IC50: read-out: PI3Kδ IC50
Method: (§1) PI3K kinases including p110α/p85α, p110δ/p85α and p110γ are purchased from Invitrogen, and p110β/p85α is from Millipore.
(§2) Primary screening data and IC50 values are measured using Transcreener™ KINASE Assay (Bellbrook, Catalog #3003-10K). […] It is a universal, homogenous, high throughput screening (HTS) technology using a far-red, competitive fluorescence polarization immunoassay based on the detection of ADP to monitor the activity of enzymes that catalyze group transfer reactions. Briefly, the Transcreener KINASE Assay is designed as a simple two-part, endpoint assay.
(§3) In the first step, the 25 ul kinase reaction is performed by preparing a reaction mixture containing 5 ul test compound (2% DMSO final concentration), 10 ul kinase, buffer (50 mM HEPES, 100 mM NaCl, 1 mM EGTA, 0.03% CHAPS, 3 mM MgCl2, and freshly supplemented 1 mM DTT), and 10 ul 30 uM PIP2/10 uM ATP. The plate is sealed and incubated for 80 min at room temperature. Next, 25 ul ADP detection mix is added per well. The plate is sealed again and incubated for 60 min at room temperature, and then measure fluorescence polarization by Tecan Infinite F500 Reader.
(§4) Data is analyzed and IC50s are generated using the add-in software for Microsoft Excel, Xlfit™ (version 2.0). IH %=(ADP amount under 2% DMSO-ADP amount under test compound)/ADP amount under 2% DMSO.

p110β/p85α = p110β/p85α (Homo sapiens, UniProt P42338); assay: Transcreener KINASE Assay, kinase inhibition of p110β/p85α; conditions: for PI3Kβ IH % @ 1 uM: 1 uM test compound; for IC50: read-out: PI3Kβ IC50
Method: as §1, §2, §3, §4

p110γ = p110γ (Homo sapiens, UniProt P48736); assay: Transcreener KINASE Assay, kinase inhibition of p110γ; conditions: for PI3Kγ IH % @ 1 uM: 1 uM test compound; for IC50: read-out: PI3Kγ IC50
Method: Kinase Inhibition assays of p110α/p85α, p110β/p85α, p110δ/p85α and p110γ PI3K kinases including p110α/p85α, p110δ/p85α and p110γ are purchased from Invitrogen, and p110β/p85α is from Millipore. Primary screening data and IC50 values are measured using Transcreener™ KINASE Assay (Bellbrook, Catalog #3003-10K). […] It is a universal, homogenous, high throughput screening (HTS) technology using a far-red, competitive fluorescence polarization immunoassay based on the detection of ADP to monitor the activity of enzymes that catalyze group transfer reactions. Briefly, the Transcreener KINASE Assay is designed as a simple two-part, endpoint assay. […] The plate is sealed and incubated for 80 min at room temperature. Next, 25 ul ADP detection mix is added per well. The plate is sealed again and incubated for 60 min at room temperature, and then measure fluorescence polarization by Tecan Infinite F500 Reader. Data is analyzed and IC50s are generated using the add-in software for Microsoft Excel, Xlfit™ (version 2.0).

p110β/p85α, sequence (P42338 whole entry): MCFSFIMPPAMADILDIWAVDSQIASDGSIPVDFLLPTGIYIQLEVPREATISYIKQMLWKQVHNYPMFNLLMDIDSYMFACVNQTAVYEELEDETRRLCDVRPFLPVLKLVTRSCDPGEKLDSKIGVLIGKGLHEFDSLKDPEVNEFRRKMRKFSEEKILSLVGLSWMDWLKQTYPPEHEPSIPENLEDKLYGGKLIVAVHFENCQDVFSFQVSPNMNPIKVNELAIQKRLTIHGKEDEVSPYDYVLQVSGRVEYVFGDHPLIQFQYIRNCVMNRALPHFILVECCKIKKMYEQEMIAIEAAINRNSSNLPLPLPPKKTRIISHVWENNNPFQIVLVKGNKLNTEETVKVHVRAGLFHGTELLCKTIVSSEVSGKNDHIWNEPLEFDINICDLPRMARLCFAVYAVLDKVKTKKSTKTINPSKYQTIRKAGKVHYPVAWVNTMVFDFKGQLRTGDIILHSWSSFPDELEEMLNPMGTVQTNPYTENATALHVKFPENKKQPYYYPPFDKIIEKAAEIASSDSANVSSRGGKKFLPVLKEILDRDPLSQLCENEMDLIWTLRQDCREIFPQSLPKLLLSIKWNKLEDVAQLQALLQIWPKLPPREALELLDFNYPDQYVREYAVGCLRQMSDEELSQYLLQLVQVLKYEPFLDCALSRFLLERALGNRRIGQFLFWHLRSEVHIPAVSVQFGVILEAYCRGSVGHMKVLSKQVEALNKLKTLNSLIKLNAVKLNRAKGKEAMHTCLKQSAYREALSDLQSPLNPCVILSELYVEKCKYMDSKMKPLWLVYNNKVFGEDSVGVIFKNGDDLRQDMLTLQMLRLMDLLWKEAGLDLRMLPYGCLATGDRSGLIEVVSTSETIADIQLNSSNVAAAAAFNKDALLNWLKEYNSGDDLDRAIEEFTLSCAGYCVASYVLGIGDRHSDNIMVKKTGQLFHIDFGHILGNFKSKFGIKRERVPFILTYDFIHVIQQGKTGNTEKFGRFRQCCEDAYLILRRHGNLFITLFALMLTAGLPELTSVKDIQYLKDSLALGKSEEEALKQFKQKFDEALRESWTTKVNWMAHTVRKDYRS
p110β/p85α, sequence (P27986 2-724 partner): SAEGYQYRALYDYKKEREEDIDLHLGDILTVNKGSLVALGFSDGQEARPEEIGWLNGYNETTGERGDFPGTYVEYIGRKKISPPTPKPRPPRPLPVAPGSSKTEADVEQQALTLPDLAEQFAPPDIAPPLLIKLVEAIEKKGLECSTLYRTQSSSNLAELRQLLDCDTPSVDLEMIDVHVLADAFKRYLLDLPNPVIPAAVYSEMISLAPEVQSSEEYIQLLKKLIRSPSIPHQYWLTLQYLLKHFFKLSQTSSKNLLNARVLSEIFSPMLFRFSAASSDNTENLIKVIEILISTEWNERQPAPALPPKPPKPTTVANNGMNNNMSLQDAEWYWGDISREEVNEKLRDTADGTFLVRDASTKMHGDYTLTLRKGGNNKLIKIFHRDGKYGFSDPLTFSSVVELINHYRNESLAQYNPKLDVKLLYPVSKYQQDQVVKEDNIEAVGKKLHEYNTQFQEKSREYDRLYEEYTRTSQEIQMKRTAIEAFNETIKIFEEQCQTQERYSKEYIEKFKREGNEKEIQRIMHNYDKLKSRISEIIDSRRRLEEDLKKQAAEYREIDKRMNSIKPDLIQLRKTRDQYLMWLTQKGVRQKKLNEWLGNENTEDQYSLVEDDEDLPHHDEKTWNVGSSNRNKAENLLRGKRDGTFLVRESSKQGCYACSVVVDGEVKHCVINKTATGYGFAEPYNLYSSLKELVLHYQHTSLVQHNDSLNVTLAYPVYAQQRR
p110δ/p85α, sequence (O00329 whole entry): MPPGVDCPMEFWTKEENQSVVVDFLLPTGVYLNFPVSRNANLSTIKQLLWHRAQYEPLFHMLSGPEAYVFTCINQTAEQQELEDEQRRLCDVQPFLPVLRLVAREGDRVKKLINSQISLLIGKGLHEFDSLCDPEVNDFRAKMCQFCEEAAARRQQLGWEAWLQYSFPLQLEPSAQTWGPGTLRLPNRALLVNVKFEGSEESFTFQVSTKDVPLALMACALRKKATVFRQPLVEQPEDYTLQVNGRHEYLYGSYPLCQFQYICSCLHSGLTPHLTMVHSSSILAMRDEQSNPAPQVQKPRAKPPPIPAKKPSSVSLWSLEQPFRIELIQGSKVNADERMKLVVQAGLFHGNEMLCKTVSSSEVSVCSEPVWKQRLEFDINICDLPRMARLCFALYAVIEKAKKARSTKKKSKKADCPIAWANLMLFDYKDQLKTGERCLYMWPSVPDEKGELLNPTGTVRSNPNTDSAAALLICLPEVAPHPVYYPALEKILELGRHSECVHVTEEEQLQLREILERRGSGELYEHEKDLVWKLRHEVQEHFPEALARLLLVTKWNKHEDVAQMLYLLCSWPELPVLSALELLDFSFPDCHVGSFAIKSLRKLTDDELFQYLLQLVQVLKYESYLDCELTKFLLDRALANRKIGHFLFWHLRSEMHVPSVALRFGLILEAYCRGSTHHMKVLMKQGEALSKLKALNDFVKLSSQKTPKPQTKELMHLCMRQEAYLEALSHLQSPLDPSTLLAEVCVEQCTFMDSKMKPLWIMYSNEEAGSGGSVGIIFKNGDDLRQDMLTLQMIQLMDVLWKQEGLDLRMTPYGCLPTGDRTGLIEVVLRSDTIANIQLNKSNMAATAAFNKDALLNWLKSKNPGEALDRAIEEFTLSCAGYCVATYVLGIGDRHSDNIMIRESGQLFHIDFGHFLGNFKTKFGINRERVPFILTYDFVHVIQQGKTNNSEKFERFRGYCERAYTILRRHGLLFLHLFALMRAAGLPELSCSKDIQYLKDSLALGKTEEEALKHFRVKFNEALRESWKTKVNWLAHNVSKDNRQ
p110δ/p85α, sequence (P27986 whole entry partner): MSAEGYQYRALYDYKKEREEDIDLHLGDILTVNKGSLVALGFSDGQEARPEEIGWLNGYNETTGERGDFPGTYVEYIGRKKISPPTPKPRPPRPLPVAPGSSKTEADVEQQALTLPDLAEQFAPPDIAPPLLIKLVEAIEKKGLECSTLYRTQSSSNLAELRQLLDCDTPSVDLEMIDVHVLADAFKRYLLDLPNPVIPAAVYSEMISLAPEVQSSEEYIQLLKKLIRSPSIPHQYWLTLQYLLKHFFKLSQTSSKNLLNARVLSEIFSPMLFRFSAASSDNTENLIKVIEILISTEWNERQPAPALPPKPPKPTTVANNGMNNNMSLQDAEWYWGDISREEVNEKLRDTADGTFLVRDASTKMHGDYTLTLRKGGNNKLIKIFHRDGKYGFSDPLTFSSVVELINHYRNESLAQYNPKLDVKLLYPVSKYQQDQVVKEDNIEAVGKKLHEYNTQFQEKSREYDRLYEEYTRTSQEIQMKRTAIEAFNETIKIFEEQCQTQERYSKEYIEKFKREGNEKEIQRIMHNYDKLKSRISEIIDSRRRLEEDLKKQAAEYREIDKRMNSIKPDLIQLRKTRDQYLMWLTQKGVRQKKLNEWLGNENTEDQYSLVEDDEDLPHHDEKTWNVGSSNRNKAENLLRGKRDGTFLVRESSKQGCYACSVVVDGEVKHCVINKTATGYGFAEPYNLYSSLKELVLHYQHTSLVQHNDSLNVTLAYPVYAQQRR
p110γ, sequence (P48736 whole entry): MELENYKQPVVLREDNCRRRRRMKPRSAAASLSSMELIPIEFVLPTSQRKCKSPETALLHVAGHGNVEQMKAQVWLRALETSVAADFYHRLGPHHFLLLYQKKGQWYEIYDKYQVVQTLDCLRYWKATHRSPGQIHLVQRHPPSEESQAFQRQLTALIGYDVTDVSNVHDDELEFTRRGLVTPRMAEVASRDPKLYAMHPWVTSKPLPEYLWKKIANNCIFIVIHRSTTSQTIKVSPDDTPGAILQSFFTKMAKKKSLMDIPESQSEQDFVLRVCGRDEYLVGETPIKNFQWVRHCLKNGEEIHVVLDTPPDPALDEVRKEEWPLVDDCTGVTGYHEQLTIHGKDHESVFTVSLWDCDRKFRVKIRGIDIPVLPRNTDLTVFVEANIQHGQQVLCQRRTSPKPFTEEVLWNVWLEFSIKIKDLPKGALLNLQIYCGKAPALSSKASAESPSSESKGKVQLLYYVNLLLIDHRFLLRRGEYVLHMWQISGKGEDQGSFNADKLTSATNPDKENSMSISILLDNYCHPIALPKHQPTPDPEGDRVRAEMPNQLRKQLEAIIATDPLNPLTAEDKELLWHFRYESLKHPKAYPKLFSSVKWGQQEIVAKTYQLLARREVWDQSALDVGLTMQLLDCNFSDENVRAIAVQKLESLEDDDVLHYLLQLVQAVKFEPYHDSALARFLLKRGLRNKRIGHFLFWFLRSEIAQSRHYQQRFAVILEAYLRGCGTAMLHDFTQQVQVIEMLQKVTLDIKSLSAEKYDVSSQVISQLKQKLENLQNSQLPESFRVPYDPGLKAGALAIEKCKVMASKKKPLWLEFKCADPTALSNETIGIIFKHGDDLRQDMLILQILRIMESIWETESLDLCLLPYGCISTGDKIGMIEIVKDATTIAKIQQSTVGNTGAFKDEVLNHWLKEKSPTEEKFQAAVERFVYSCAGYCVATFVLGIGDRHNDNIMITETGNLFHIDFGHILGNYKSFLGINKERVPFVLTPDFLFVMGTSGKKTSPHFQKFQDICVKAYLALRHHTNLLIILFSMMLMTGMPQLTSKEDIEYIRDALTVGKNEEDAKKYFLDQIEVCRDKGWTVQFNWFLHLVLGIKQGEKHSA

Row | SMILES | PI3Kδ IH % @ 1 uM (p110δ/p85α) [%] | IC50 (p110δ/p85α) [nM] | PI3Kβ IH % @ 1 uM (p110β/p85α) [%] | IC50 (p110β/p85α) [nM] | PI3Kγ IH % @ 1 uM (p110γ) [%] | IC50 (p110γ) [nM]
1 | C[C@H](Nc1nc(N)ncc1C#N)c1cc2ncc(Cl)n2c(=O)n1-c1ccccc1 (single isomer, unassigned) [Compound 385] | >100 | 4 | 83.3 | 75 | 95.9 | 10
2 | C[S@+]([O-])c1c[nH]c2ncnc(N3CCC[C@H]3c3nn4ccc(Cl)c4c(=O)n3-c3cccc(F)c3)c12 (single isomer, unassigned) [Compound 386] | >100 | 3 | 76.8 | 322 | 95.0 | 21
3 | C[S+]([O-])c1c[nH]c2ncnc(N3CCC[C@H]3c3nn4ccc(Cl)c4c(=O)n3-c3cccc(F)c3)c12 (single isomer, unassigned) [Compound 387] | 98.2 | 7 | 39.6 |  | >100 | 9
4 | C[S+]([O-])c1c[nH]c2ncnc(N3CCC[C@H]3c3nn4ccc(Cl)c4c(=O)n3-c3ccccn3)c12 (single isomer, unassigned) [Compound 389] | 95.4 | 7 | 32.7 |  | 87.9 | 46
5 | CC(Nc1nc(N)nc2c1C(=O)CCN2)c1cn2ccc(F)c2c(=O)n1-c1ccccc1 (single isomer, unassigned) [Compound 407] | 94.9 |  | >100 |  | >100 | 
6 | CC(=O)c1cnc(N)nc1N[C@H](C)c1cc2ncc(Cl)n2c(=O)n1-c1ccccc1 (single isomer, unassigned) [Compound 448] | 98.8 | 17 | 55.9 |  | 82.3 | 105
7 | CC(Nc1nc(N)ncc1C#N)c1cn2ccc(F)c2c(=O)n1-c1ccccc1 (single isomer, unassigned) [Compound 449] | 96.1 |  | 87.2 |  | 97.8 | 
8 | CC(Nc1ncnc2[nH]cnc12)c1cn2ccc(Cl)c2c(=O)n1-c1ccccc1 (stereo not drawn) [Compound 87] |  |  | 90.8 | 49 | >100 | 8
9 | Nc1ncc(C(=O)C(F)(F)F)c(N2CC[C@H]2c2nn3ccc(Cl)c3c(=O)n2-c2ccccc2)n1 [Compound 325] |  | 524 |  |  |  | 
10 | Nc1nc(N2CC[C@H]2c2nn3ccc(Cl)c3c(=O)n2-c2ccccc2)c2cccn2n1 [Compound 329, (S)-2-(1-(2-aminopyrrolo[2,1-f][1,2,4]triazin-4-yl)azetidin-2-yl)-5-chloro-3-phenyl-pyrrolo[2,1-f][1,2,4]triazin-4(3H)-one] | 50.3 |  |  |  | 91.6 | 227
11 | N#Cc1cnc(N)nc1N1CCC1c1nn2ccc(Cl)c2c(=O)n1CC1CC1 (stereo not drawn) [Compound 373] |  |  | 37.4 |  |  | 
12 | C[C@H]1CN(c2ncnc(N)c2C#N)C1c1nn2ccc(Cl)c2c(=O)n1-c1ccccc1 (stereo partly drawn) [Compound 494] |  |  | 55.70 |  | 93.5 | 
13 | CC(=O)c1cnc(N)nc1N1CC[C@H]1c1nn2ccc(Cl)c2c(=O)n1-c1cc(F)cc(F)c1 [Compound 495] | 99.5 |  |  |  | >100 | 
14 | CC(=O)c1cnc(N)nc1N1CC[C@H]1c1nn2ccc(C#N)c2c(=O)n1-c1ccccc1 [Compound 498] | >100 | 21 |  |  | >100 | 13
15 | CC(=O)c1c(N)ncnc1N1C[C@H](C)[C@H]1c1nn2ccc(Cl)c2c(=O)n1-c1ccccc1 [Compound 509] | >100 |  |  |  | >100 | 
16 | CC(=O)c1cnc(N)nc1N1C[C@H](C)[C@H]1c1nn2ccc(Cl)c2c(=O)n1-c1cc(F)cc(F)c1 [Compound 518] | >100 |  |  |  | >100 | 
